Measured values: ChEMBL document CHEMBL1201862, “PubChem BioAssay data set” (2004)
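Each compound was tested at five concentrations against cells in 96-well plates for 48 hours. GI50: concentration for 50% inhibition of growth.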 Active and inactive are the calls of the source. Rule as the data show it: active = GI50 up to about 1.1 µM and inactive = higher.

How the values were obtained:
Experiment in all cases: NCI anticancer screen, dose series, 48 h
[1] = system: OVCAR-5
[2] = system: UO-31
[3] = system: UACC-257
[4] = system: IGROV-1
[5] = system: KM12
[6] = system: Malme-3M
[7] = system: UACC-62
[8] = system: SF-295
[9] = system: ACHN
[10] = system: EKVX
[11] = system: OVCAR-8
[12] = system: SNB-19
[13] = system: SF-268
[14] = system: TK-10
[15] = system: M14
[16] = system: HOP-62
[17] = system: HCT-116
[18] = system: NCI-H460
[19] = system: SK-OV-3
[20] = system: SR

Row | SMILES | GI50 [1] | GI50 [2] | GI50 [3] | GI50 [4] | GI50 [5] | GI50 [6] | GI50 [7] | GI50 [8] | GI50 [9] | GI50 [10] | GI50 [11] | GI50 [12] | GI50 [13] | GI50 [14] | GI50 [15] | GI50 [16] | GI50 [17] | GI50 [18] | GI50 [19] | GI50 [20]
1 | C/C(Cc1ccc2c(c1)OCO2)=N\N=c1\sc2ccccc2n1C | > 100 µM (inactive) | > 100 µM (inactive) | > 100 µM (inactive) | > 100 µM (inactive) | > 100 µM (inactive) | > 100 µM (inactive) | > 100 µM (inactive) | > 100 µM (inactive) | > 100 µM (inactive) | 24.8 µM (inactive) | > 100 µM (inactive) | > 100 µM (inactive) | > 100 µM (inactive) | > 100 µM (inactive) | > 100 µM (inactive) | > 100 µM (inactive) | 48.5 µM (inactive) |  |  | 
2 | O=C(CCC(=O)Nc1ccc(Cl)c(Cl)c1)CC(=O)c1ccc2ccccc2c1 | > 100 µM (inactive) | > 100 µM (inactive) | > 100 µM (inactive) | > 100 µM (inactive) | 82 µM (inactive) | > 100 µM (inactive) | 17.2 µM (inactive) | > 100 µM (inactive) | 39.8 µM (inactive) | > 100 µM (inactive) | > 100 µM (inactive) | > 100 µM (inactive) | > 100 µM (inactive) | > 100 µM (inactive) | > 100 µM (inactive) | > 100 µM (inactive) | > 100 µM (inactive) | > 100 µM (inactive) |  | 
3 | NNc1[nH]c(=S)[nH]c1C(N)=O | > 100 µM (inactive) | > 100 µM (inactive) | > 100 µM (inactive) | > 100 µM (inactive) | > 100 µM (inactive) | > 100 µM (inactive) | > 100 µM (inactive) | > 100 µM (inactive) |  | > 100 µM (inactive) | > 100 µM (inactive) |  | > 100 µM (inactive) | > 100 µM (inactive) | > 100 µM (inactive) | > 100 µM (inactive) | > 100 µM (inactive) | > 100 µM (inactive) | > 100 µM (inactive) | 
4 | O=C1Nc2ccccc2/C1=N/Nc1nc(-c2ccccc2)cs1 | 58.3 µM (inactive) | 24.7 µM (inactive) | 56.2 µM (inactive) | 21.1 µM (inactive) | 30.3 µM (inactive) |  |  | 24.5 µM (inactive) | 24.5 µM (inactive) | 21.4 µM (inactive) | 40.1 µM (inactive) | 29.9 µM (inactive) |  | 31.9 µM (inactive) | 23.1 µM (inactive) | 18.2 µM (inactive) | 31.9 µM (inactive) | 14.7 µM (inactive) | 59 µM (inactive) | 
5 | CC(C)(C)C(=O)OCC1CCC(n2cnc3c(=O)[nH]c(N)nc32)O1 (stereo not drawn) | > 100 µM (inactive) | > 100 µM (inactive) | > 100 µM (inactive) | > 100 µM (inactive) | > 100 µM (inactive) | > 100 µM (inactive) | > 100 µM (inactive) | > 100 µM (inactive) | > 100 µM (inactive) | > 100 µM (inactive) | > 100 µM (inactive) | > 100 µM (inactive) | > 100 µM (inactive) | > 100 µM (inactive) | > 100 µM (inactive) | > 100 µM (inactive) | > 100 µM (inactive) | > 100 µM (inactive) | > 100 µM (inactive) | 
6 | O=C(NCCCl)Nc1cccnc1 |  | 22.3 µM (inactive) | 8 µM (inactive) | 13.6 µM (inactive) | 13.8 µM (inactive) | 2.62 µM (inactive) | 15.3 µM (inactive) | 30 µM (inactive) | 13.6 µM (inactive) | 14.1 µM (inactive) | 12.4 µM (inactive) | 41.4 µM (inactive) |  | 11.2 µM (inactive) | 17.6 µM (inactive) | 34.4 µM (inactive) | 13.8 µM (inactive) |  | 20.6 µM (inactive) | 
7 | CN(C(=O)c1ccco1)C(=S)N1CCN(c2ccccn2)CC1 | > 100 µM (inactive) | > 100 µM (inactive) | > 100 µM (inactive) | > 100 µM (inactive) | > 100 µM (inactive) | > 100 µM (inactive) | > 100 µM (inactive) | > 100 µM (inactive) | > 100 µM (inactive) |  | > 100 µM (inactive) | > 100 µM (inactive) | > 100 µM (inactive) | > 100 µM (inactive) | > 100 µM (inactive) | > 100 µM (inactive) | > 100 µM (inactive) | > 100 µM (inactive) | > 100 µM (inactive) | 
8 | CC1=C2N3C[C@@H](n4c(=O)n(C)c(=O)n43)C23CCC1n1c(=O)n(C)c(=O)n13 | > 100 µM (inactive) | > 100 µM (inactive) | > 100 µM (inactive) | > 100 µM (inactive) | > 100 µM (inactive) | > 100 µM (inactive) | > 100 µM (inactive) | > 100 µM (inactive) | > 100 µM (inactive) | > 100 µM (inactive) | > 100 µM (inactive) | > 100 µM (inactive) | > 100 µM (inactive) | > 100 µM (inactive) | > 100 µM (inactive) | > 100 µM (inactive) |  | > 100 µM (inactive) |  | 
9 | O=C1CCCC/C1=C\c1ccc(Cl)c(Cl)c1 |  | 17.8 µM (inactive) |  | 25.2 µM (inactive) |  |  | 23.4 µM (inactive) |  | 18.3 µM (inactive) | 45.7 µM (inactive) | 23.6 µM (inactive) | 25.8 µM (inactive) | 23.3 µM (inactive) | 17 µM (inactive) | 19.9 µM (inactive) | 57.7 µM (inactive) | 17.1 µM (inactive) | 20.1 µM (inactive) | 45.8 µM (inactive) | 
10 | CC1=C(Cl)C=CP(=O)(Oc2ccccc2)C1 (stereo not drawn) | > 100 µM (inactive) | 38.3 µM (inactive) | 71.6 µM (inactive) | > 100 µM (inactive) | > 100 µM (inactive) | 44.5 µM (inactive) | 43.2 µM (inactive) | > 100 µM (inactive) | > 100 µM (inactive) | > 100 µM (inactive) | 23.3 µM (inactive) | > 100 µM (inactive) | 29.1 µM (inactive) |  | 19.1 µM (inactive) | > 100 µM (inactive) | 30.8 µM (inactive) | 32.6 µM (inactive) |  | 
11 | CCCCN(CCCC)C(=O)C(=O)C(C(=O)c1ccc(OC)cc1)c1ccc(OC)cc1 (stereo not drawn) | > 100 µM (inactive) | > 100 µM (inactive) | > 100 µM (inactive) | > 100 µM (inactive) | > 100 µM (inactive) | > 100 µM (inactive) | 56.4 µM (inactive) | > 100 µM (inactive) | > 100 µM (inactive) | > 100 µM (inactive) | > 100 µM (inactive) | > 100 µM (inactive) | > 100 µM (inactive) | > 100 µM (inactive) | 92.3 µM (inactive) | > 100 µM (inactive) | > 100 µM (inactive) | > 100 µM (inactive) | > 100 µM (inactive) | 
12 | Cc1cn(C2CC(n3cc(Cn4cc(I)c(=O)[nH]c4=O)nn3)C(CO)O2)c(=O)[nH]c1=O (stereo not drawn) | > 100 µM (inactive) | > 10 µM (inactive) | > 100 µM (inactive) |  | > 100 µM (inactive) |  | > 100 µM (inactive) | > 100 µM (inactive) | > 100 µM (inactive) |  | > 100 µM (inactive) | > 100 µM (inactive) | > 100 µM (inactive) | > 100 µM (inactive) | > 100 µM (inactive) | > 100 µM (inactive) | > 100 µM (inactive) |  | > 100 µM (inactive) | < 10 nM (active)
13 | COc1ccc(-c2cc(O)c3cccnc3n2)cc1 | > 100 µM (inactive) | 54.6 µM (inactive) | 26.2 µM (inactive) | 26.7 µM (inactive) | 33.7 µM (inactive) | 31.9 µM (inactive) | 23.2 µM (inactive) |  | 53.7 µM (inactive) | > 100 µM (inactive) | 57.1 µM (inactive) | 78.5 µM (inactive) | 40.6 µM (inactive) | 44.4 µM (inactive) | 28.3 µM (inactive) | 44.3 µM (inactive) |  |  | 26.7 µM (inactive) | 
14 | Nc1ncnc2c(C3OC(CO)C(O)C3O)n[nH]c12 (stereo not drawn) | 0.59 µM (active) | 0.0551 µM (active) |  | 0.445 µM (active) | 0.38 µM (active) | 0.432 µM (active) | 1.4 µM (inactive) | 0.427 µM (active) |  | 0.0646 µM (active) |  | 0.211 µM (active) |  |  |  | 0.0509 µM (active) | 0.0767 µM (active) | 0.0826 µM (active) |  | 
15 | C[C@]12CCc3nonc3C1CC[C@@H]1C2CC[C@]2(C)C(=O)CCC12 (stereo partly drawn) | > 100 µM (inactive) | 20.6 µM (inactive) | > 10 µM (inactive) | 67.1 µM (inactive) | 20.9 µM (inactive) | 24.9 µM (inactive) | 21.7 µM (inactive) | 26.3 µM (inactive) | 74 µM (inactive) | 17.1 µM (inactive) | 31.2 µM (inactive) | 81.1 µM (inactive) | 39.4 µM (inactive) | > 10 µM (inactive) | 64.9 µM (inactive) | > 100 µM (inactive) |  | > 100 µM (inactive) | 33 µM (inactive) | 
16 | C/C(=N\NC(=O)C[N+](C)(C)C)c1sc(-c2cccnc2)nc1C | > 100 µM (inactive) | 41.2 µM (inactive) | > 100 µM (inactive) | > 100 µM (inactive) | > 100 µM (inactive) | > 100 µM (inactive) | > 100 µM (inactive) | > 100 µM (inactive) | > 100 µM (inactive) | > 100 µM (inactive) | > 100 µM (inactive) |  | > 100 µM (inactive) | > 100 µM (inactive) | > 100 µM (inactive) | > 100 µM (inactive) | > 100 µM (inactive) | > 100 µM (inactive) | > 100 µM (inactive) | 
